The values that follow come from patent US8686041B2, “Inhibition of ornithine aminotransferase for the treatment of proliferative disorders” (Hadasit Medical Research Services & Development, Ltd., priority 2006, dated 2014).

One test deals with HepG2. Put plainly: αFP secretion by HCC cell lines with Gabaculine analogue 8. The format is cell-based, human. Conditions: 48 hours. As to the method: (§1) 1×10^5 cells/well of each of Hep3b and HepG2 hepatocellular carcinoma cell lines were plated in triplicate and incubated at 37° C. Gabaculine analogue 8 was added to wells at varying concentrations (0.1 μg/ml, 1 μg/ml, 10 μg/ml and 50 μg/ml). Cells returned to incubator for further incubation of 48 hours. In the fourth day of the experiment, one ml of supernatant from each well was transferred to eppendorf tubes and analyzed for αFP concentration. αFP levels were checked using the Abbott Diagnostic AxSYM system. Encouraged by the in vitro and in vivo results of inhibiting OAT using Gabaculine, the inventors next examined the in vitro effect of a further OAT inhibitor, Gabaculine analogue 8 (LHJ-II-79), on AFP secretion from two different HCC cell lines. Therefore, Hep3b and HepG2 hepatocellular carcinoma cell lines were detached from culture dishes using trypsin-EDTA, re-plated in triplicates in 12 well culture dishes (1×10^5 cells/well) and incubated at 37° C. Gabaculine analogue 8 was added to wells at varying concentrations (0.1 μg/ml, 1 μg/ml, 10 μg/ml and 50 μg/ml). After 48 hours, cell supernatant was analyzed for AFP concentration.

A further test concerns HEP3B. The test is described as above. Conditions: 48 hours. The format is cell-based, human. The procedure: as §1
Where [1] appears, read: 0.1-50 μg/ml, effect concentration dependent.

With `Cl.NC1CC(C(=O)O)CC1=C=C(C(F)(F)F)C(F)(F)F` (stereo not shown) [analogue 8, 1-carboxy-3-amino-4-bis(trifluoromethyl)vinylidene cyclopentane hydrochloride], the “AFP secretion by the cells, in words” value with HepG2 (setting [1]) and in the test with HEP3B (setting [1]) was “significant reduction of AFP secretion” each time. The “AVG results AF” value in the test on HepG2 (EXP. I, 10 ug/ml, 1:100 dil, CONTROL 34.19) worked out at 37.98 ng/mL; with HepG2 (EXP. I, 50 ug/ml, 1:100 dil, CONTROL 34.19), 23.54 ng/mL; with HepG2 (EXP. II, 0.1 ug/ml, 1:100 dil, CONTROL 11.93) it was 11.92 ng/mL; with HepG2 (EXP. II, 1 ug/ml, 1:100 dil, CONTROL 11.93), 12.85 ng/mL; in the test on HepG2 (EXP. II, 10 ug/ml, 1:100 dil, CONTROL 11.93) it was 11.38 ng/mL; in the test on HepG2 (EXP. II, 50 ug/ml, 1:100 dil, CONTROL 11.93) it was 8.54 ng/mL. In addition, the “AVG results AF” value with HepG2 (EXP. III, 10 ug/ml, 1:100 dil, CONTROL 12.07) is 10.67 ng/mL; with HepG2 (EXP. III, 50 ug/ml, 1:100 dil, CONTROL 12.07) it was 7.57 ng/mL; with HepG2 (EXP. IV, 10 ug/ml, 1:50 dil, CONTROL 13.32) it was 12.74 ng/mL; in the test with HepG2 (EXP. IV, 50 ug/ml, 1:50 dil, CONTROL 13.32) it was 8.94 ng/mL; in the test on HEP3B (EXP. I, 10 ug/ml, 1:5 dil, CONTROL 42.52) it was 37.96 ng/mL; in the test with HEP3B (EXP. I, 50 ug/ml, 1:5 dil, CONTROL 42.52) it was 18.52 ng/mL. Also, the “AVG results AF” value in the test with HEP3B (EXP. II, 0.1 ug/ml, 1:5 dil, CONTROL 13.42) is 12.66 ng/mL; with HEP3B (EXP. II, 1 ug/ml, 1:5 dil, CONTROL 13.42) it was 11.92 ng/mL; with HEP3B (EXP. II, 10 ug/ml, 1:5 dil, CONTROL 13.42), 9.63 ng/mL; in the test on HEP3B (EXP. II, 50 ug/ml, 1:5 dil, CONTROL 13.42), 9.37 ng/mL; in the test on HEP3B (EXP. III, 10 ug/ml, 1:5 dil, CONTROL 11.39), 10.97 ng/mL; in the test on HEP3B (EXP. III, 50 ug/ml, 1:5 dil, CONTROL 11.39), 6.98 ng/mL. The “AVG results AF” value in the test with HEP3B (EXP. IV, 10 ug/ml, 1:2 dil, CONTROL 18.45) stood at 13.73 ng/mL; in the test with HEP3B (EXP. IV, 50 ug/ml, 1:2 dil, CONTROL 18.45), 11.30 ng/mL.
